Assay results from PubChem BioAssay (NCI).
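Here, GI50 denotes the concentration required for 50% inhibition of growth. TGI marks complete inhibition of growth.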

What was measured:
Assay in all cases: inhibition of tumour cell growth, NCI panel, 384-well format
HS 578T breast = system: HS 578T breast
RPMI-8226 leukemia = system: RPMI-8226 leukemia
M14 melanoma = system: M14 melanoma
SK-MEL-28 melanoma = system: SK-MEL-28 melanoma
OVCAR-3 ovarian = system: OVCAR-3 ovarian
MALME-3M melanoma = system: MALME-3M melanoma
HCT-15 colon = system: HCT-15 colon
UACC-62 melanoma = system: UACC-62 melanoma
OVCAR-4 ovarian = system: OVCAR-4 ovarian
SNB-75 CNS = system: SNB-75 CNS
IGROV1 ovarian = system: IGROV1 ovarian
SF-539 CNS = system: SF-539 CNS
BT-549 breast = system: BT-549 breast
DU-145 prostate = system: DU-145 prostate
HL-60(TB) leukemia = system: HL-60(TB) leukemia
U251 glioblastoma = system: U251 glioblastoma
A549 NSCLC = system: A549 NSCLC
T-47D breast = system: T-47D breast
KM12 colon = system: KM12 colon
CAKI-1 renal = system: CAKI-1 renal
NCI-H226 lung = system: NCI-H226 lung
SK-OV-3 ovarian = system: SK-OV-3 ovarian
RXF 393 renal = system: RXF 393 renal
HOP-62 NSCLC = system: HOP-62 NSCLC
HT29 colon = system: HT29 colon
NCI/ADR-RES ovarian = system: NCI/ADR-RES ovarian
OVCAR-8 ovarian = system: OVCAR-8 ovarian
A498 renal = system: A498 renal
786-0 renal = system: 786-0 renal
COLO 205 colon = system: COLO 205 colon
NCI-H522 lung = system: NCI-H522 lung
HCC-2998 colon = system: HCC-2998 colon
NCI-H460 NSCLC = system: NCI-H460 NSCLC
HOP-92 NSCLC = system: HOP-92 NSCLC
SK-MEL-5 melanoma = system: SK-MEL-5 melanoma
UACC-257 melanoma = system: UACC-257 melanoma
SN12C renal = system: SN12C renal
SF-295 CNS = system: SF-295 CNS
NCI-H23 lung = system: NCI-H23 lung
SK-MEL-2 melanoma = system: SK-MEL-2 melanoma
TK-10 renal = system: TK-10 renal
MDA-MB-231 breast = system: MDA-MB-231 breast
ACHN renal = system: ACHN renal
OVCAR-5 ovarian = system: OVCAR-5 ovarian
SF-268 CNS = system: SF-268 CNS
MCF7 breast = system: MCF7 breast
SR leukemia = system: SR leukemia
NCI-H322M lung = system: NCI-H322M lung
MDA-MB-435 melanoma = system: MDA-MB-435 melanoma
EKVX NSCLC = system: EKVX NSCLC
PC-3 prostate = system: PC-3 prostate
SNB-19 CNS = system: SNB-19 CNS
SW-620 colon = system: SW-620 colon
CCRF-CEM leukemia = system: CCRF-CEM leukemia
MOLT-4 leukemia = system: MOLT-4 leukemia
MDA-MB-468 breast = system: MDA-MB-468 breast

COc1c2occc2cc2ccc(=O)oc12
GI50 (HS 578T breast): > 100 µM | TGI (HS 578T breast): > 100 µM | GI50 (RPMI-8226 leukemia): > 100 µM | TGI (RPMI-8226 leukemia): > 100 µM | GI50 (M14 melanoma): > 100 µM | TGI (M14 melanoma): > 100 µM | GI50 (SK-MEL-28 melanoma): > 100 µM | TGI (SK-MEL-28 melanoma): > 100 µM | GI50 (OVCAR-3 ovarian): > 100 µM | TGI (OVCAR-3 ovarian): > 100 µM | GI50 (MALME-3M melanoma): > 100 µM | TGI (MALME-3M melanoma): > 100 µM | GI50 (HCT-15 colon): > 100 µM | TGI (HCT-15 colon): > 100 µM | GI50 (UACC-62 melanoma): > 100 µM | TGI (UACC-62 melanoma): > 100 µM | GI50 (OVCAR-4 ovarian): > 100 µM | TGI (OVCAR-4 ovarian): > 100 µM | GI50 (SNB-75 CNS): 73.3 µM | TGI (SNB-75 CNS): > 100 µM | GI50 (IGROV1 ovarian): > 100 µM | TGI (IGROV1 ovarian): > 100 µM | GI50 (SF-539 CNS): > 100 µM | TGI (SF-539 CNS): > 100 µM | GI50 (BT-549 breast): > 100 µM | TGI (BT-549 breast): > 100 µM | GI50 (DU-145 prostate): > 100 µM | TGI (DU-145 prostate): > 100 µM | GI50 (HL-60(TB) leukemia): > 100 µM | TGI (HL-60(TB) leukemia): > 100 µM | GI50 (U251 glioblastoma): > 100 µM | TGI (U251 glioblastoma): > 100 µM | GI50 (A549 NSCLC): > 100 µM | TGI (A549 NSCLC): > 100 µM | GI50 (T-47D breast): > 100 µM | TGI (T-47D breast): > 100 µM | GI50 (KM12 colon): > 100 µM | TGI (KM12 colon): > 100 µM | GI50 (CAKI-1 renal): > 100 µM | TGI (CAKI-1 renal): > 100 µM | GI50 (NCI-H226 lung): 55.4 µM | TGI (NCI-H226 lung): > 100 µM | GI50 (SK-OV-3 ovarian): > 100 µM | TGI (SK-OV-3 ovarian): > 100 µM | GI50 (RXF 393 renal): > 100 µM | TGI (RXF 393 renal): > 100 µM | GI50 (HOP-62 NSCLC): > 100 µM | TGI (HOP-62 NSCLC): > 100 µM | GI50 (HT29 colon): > 100 µM | TGI (HT29 colon): > 100 µM | GI50 (NCI/ADR-RES ovarian): > 100 µM | TGI (NCI/ADR-RES ovarian): > 100 µM | GI50 (OVCAR-8 ovarian): > 100 µM | TGI (OVCAR-8 ovarian): > 100 µM | GI50 (A498 renal): > 100 µM | TGI (A498 renal): > 100 µM | GI50 (786-0 renal): > 100 µM | TGI (786-0 renal): > 100 µM | GI50 (COLO 205 colon): > 100 µM | TGI (COLO 205 colon): > 100 µM | GI50 (NCI-H522 lung): 60.9 µM | TGI (NCI-H522 lung): > 100 µM | GI50 (HCC-2998 colon): > 100 µM | TGI (HCC-2998 colon): > 100 µM | GI50 (NCI-H460 NSCLC): > 100 µM | TGI (NCI-H460 NSCLC): > 100 µM | GI50 (HOP-92 NSCLC): > 100 µM | TGI (HOP-92 NSCLC): > 100 µM | GI50 (SK-MEL-5 melanoma): > 100 µM | TGI (SK-MEL-5 melanoma): > 100 µM | GI50 (UACC-257 melanoma): > 100 µM | TGI (UACC-257 melanoma): > 100 µM | GI50 (SN12C renal): > 100 µM | TGI (SN12C renal): > 100 µM | GI50 (SF-295 CNS): > 100 µM | TGI (SF-295 CNS): > 100 µM | GI50 (NCI-H23 lung): > 100 µM | TGI (NCI-H23 lung): > 100 µM | GI50 (SK-MEL-2 melanoma): > 100 µM | TGI (SK-MEL-2 melanoma): > 100 µM | GI50 (TK-10 renal): 81.6 µM | TGI (TK-10 renal): > 100 µM | GI50 (MDA-MB-231 breast): > 100 µM | TGI (MDA-MB-231 breast): > 100 µM | GI50 (ACHN renal): > 100 µM | TGI (ACHN renal): > 100 µM | GI50 (OVCAR-5 ovarian): > 100 µM | TGI (OVCAR-5 ovarian): > 100 µM | GI50 (SF-268 CNS): > 100 µM | TGI (SF-268 CNS): > 100 µM | GI50 (MCF7 breast): > 100 µM | TGI (MCF7 breast): > 100 µM | GI50 (SR leukemia): > 100 µM | TGI (SR leukemia): > 100 µM | GI50 (NCI-H322M lung): > 100 µM | TGI (NCI-H322M lung): > 100 µM | GI50 (MDA-MB-435 melanoma): > 100 µM | TGI (MDA-MB-435 melanoma): > 100 µM | GI50 (EKVX NSCLC): 93.1 µM | TGI (EKVX NSCLC): > 100 µM | GI50 (PC-3 prostate): > 100 µM | TGI (PC-3 prostate): > 100 µM | GI50 (SNB-19 CNS): > 100 µM | TGI (SNB-19 CNS): > 100 µM | GI50 (SW-620 colon): > 100 µM | TGI (SW-620 colon): > 100 µM | GI50 (CCRF-CEM leukemia): > 100 µM | TGI (CCRF-CEM leukemia): > 100 µM | GI50 (MOLT-4 leukemia): > 100 µM | TGI (MOLT-4 leukemia): > 100 µM | GI50 (MDA-MB-468 breast): 39.8 µM | TGI (MDA-MB-468 breast): > 100 µM
